Results as given in ChEMBL document CHEMBL1201862, “PubChem BioAssay data set” (2004).
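Five compound concentrations were applied to cells in 96-well plates for 48 hours; endpoints were derived by simple linear interpolation of the resulting dose-response curve. GI50 marks 50% less growth.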 The source made the active and inactive calls. Cut-off read from the data, not from the text of the source: active = GI50 up to about 1.1 µM and inactive = higher.

Key:
Experiment in all cases: inhibition of tumour cell growth, NCI panel, 48 h
786-0 = test system: 786-0
A498 = test system: A498
A549 = test system: A549
ACHN = test system: ACHN
CAKI-1 = test system: CAKI-1
CCRF-CEM = test system: CCRF-CEM
COLO 205 = test system: COLO 205
DLD-1 = test system: DLD-1
DMS-114 = test system: DMS-114
DMS-273 = test system: DMS-273
HCC 2998 = test system: HCC 2998
HCT-116 = test system: HCT-116
HCT-15 = test system: HCT-15
HL-60 = test system: HL-60
HOP-18 = test system: HOP-18
HOP-62 = test system: HOP-62
HOP-92 = test system: HOP-92
HT-29 = test system: HT-29
IGROV-1 = test system: IGROV-1
K562 = test system: K562
KM-20L2 = test system: KM-20L2
KM12 = test system: KM12
LOX IMVI = test system: LOX IMVI
LXFL 529 = test system: LXFL 529
M14 = test system: M14
M19-MEL = test system: M19-MEL
MOLT-4 = test system: MOLT-4
Malme-3M = test system: Malme-3M
NCI-H226 = test system: NCI-H226
NCI-H23 = test system: NCI-H23
NCI-H460 = test system: NCI-H460
OVCAR-3 = test system: OVCAR-3
OVCAR-4 = test system: OVCAR-4
OVCAR-5 = test system: OVCAR-5
OVCAR-8 = test system: OVCAR-8
RPMI-8226 = test system: RPMI-8226
RXF 393 = test system: RXF 393
SF-268 = test system: SF-268
SF-295 = test system: SF-295
SF-539 = test system: SF-539
SK-MEL-28 = test system: SK-MEL-28
SK-MEL-5 = test system: SK-MEL-5
SK-OV-3 = test system: SK-OV-3
SN12C = test system: SN12C
SNB-19 = test system: SNB-19
SNB-75 = test system: SNB-75
SNB-78 = test system: SNB-78
SR = test system: SR
SW-620 = test system: SW-620
TK-10 = test system: TK-10
U-251 = test system: U-251
UACC-257 = test system: UACC-257
UACC-62 = test system: UACC-62
UO-31 = test system: UO-31
XF498 = test system: XF498

How did the GI50 (786-0) turn out when CCN(CC)CC(=O)/C=C/c1ccc(C)cc1 was run?
Its GI50 is 17.6 µM (inactive).

And the GI50 (A498)?
Its GI50 is 56 µM (inactive).

What about the GI50 (A549) of the same compound?
The GI50 was 27 µM (inactive).

And the GI50 (ACHN)?
The GI50 was 19.2 µM (inactive).

And the GI50 (CAKI-1)?
Its GI50 is 17.8 µM (inactive).

And the GI50 (CCRF-CEM)?
The GI50 was 2.93 µM (inactive).

What about the GI50 (COLO 205) of the same compound?
Its GI50 is 18.8 µM (inactive).

What about the GI50 (DLD-1) of the same compound?
The GI50 was 25.1 µM (inactive).

And the GI50 (DMS-114)?
The GI50 was 21.9 µM (inactive).

What about the GI50 (DMS-273) of the same compound?
Its GI50 is 22.2 µM (inactive).

And the GI50 (HCC 2998)?
The GI50 was 17.9 µM (inactive).

What about the GI50 (HCT-116) of the same compound?
Its GI50 is 17.5 µM (inactive).

And the GI50 (HCT-15)?
The GI50 was 18.9 µM.

What about the GI50 (HL-60) of the same compound?
Its GI50 is 20.2 µM (inactive).

What about the GI50 (HOP-18) of the same compound?
The GI50 was 23.2 µM (inactive).

And the GI50 (HOP-62)?
Its GI50 is 34.1 µM (inactive).

And the GI50 (HOP-92)?
Its GI50 is 30.1 µM (inactive).

And the GI50 (HT-29)?
Its GI50 is 22.3 µM (inactive).

What about the GI50 (IGROV-1) of the same compound?
The GI50 was 20.8 µM (inactive).

And the GI50 (K562)?
The GI50 was 35.6 µM (inactive).

And the GI50 (KM-20L2)?
The GI50 was 20.6 µM (inactive).

And the GI50 (KM12)?
The GI50 was 17.5 µM (inactive).

And the GI50 (LOX IMVI)?
The GI50 was 18.5 µM (inactive).

What about the GI50 (LXFL 529) of the same compound?
Its GI50 is 18.6 µM (inactive).

And the GI50 (M14)?
Its GI50 is 17.4 µM (inactive).

What about the GI50 (M19-MEL) of the same compound?
Its GI50 is 17.6 µM (inactive).

And the GI50 (MOLT-4)?
Its GI50 is 31.9 µM (inactive).

And the GI50 (Malme-3M)?
The GI50 was 19.5 µM (inactive).

And the GI50 (NCI-H226)?
The GI50 was 22.1 µM (inactive).

What about the GI50 (NCI-H23) of the same compound?
Its GI50 is 30.5 µM (inactive).

And the GI50 (NCI-H460)?
The GI50 was 20.6 µM (inactive).

And the GI50 (OVCAR-3)?
Its GI50 is 19.9 µM (inactive).

And the GI50 (OVCAR-4)?
Its GI50 is 15.8 µM (inactive).

What about the GI50 (OVCAR-5) of the same compound?
The GI50 was 42.3 µM (inactive).

And the GI50 (OVCAR-8)?
Its GI50 is 20.1 µM (inactive).

And the GI50 (RPMI-8226)?
Its GI50 is 34.6 µM (inactive).

And the GI50 (RXF 393)?
The GI50 was 24.3 µM (inactive).

What about the GI50 (SF-268) of the same compound?
The GI50 was 27.9 µM (inactive).

And the GI50 (SF-295)?
Its GI50 is 32 µM (inactive).

What about the GI50 (SF-539) of the same compound?
Its GI50 is 20.7 µM (inactive).

What about the GI50 (SK-MEL-28) of the same compound?
The GI50 was 23.8 µM (inactive).

And the GI50 (SK-MEL-5)?
The GI50 was 17.8 µM (inactive).

What about the GI50 (SK-OV-3) of the same compound?
The GI50 was 29.2 µM (inactive).

What about the GI50 (SN12C) of the same compound?
Its GI50 is 17.6 µM (inactive).

What about the GI50 (SNB-19) of the same compound?
The GI50 was 15.1 µM (inactive).

And the GI50 (SNB-75)?
Its GI50 is 24.3 µM (inactive).

What about the GI50 (SNB-78) of the same compound?
Its GI50 is 51.8 µM (inactive).

And the GI50 (SR)?
Its GI50 is 27.7 µM (inactive).

What about the GI50 (SW-620) of the same compound?
Its GI50 is 16.2 µM (inactive).

And the GI50 (TK-10)?
The GI50 was 28.3 µM (inactive).

And the GI50 (U-251)?
The GI50 was 16.5 µM (inactive).

And the GI50 (UACC-257)?
The GI50 was 21.6 µM (inactive).

What about the GI50 (UACC-62) of the same compound?
The GI50 was 17.3 µM (inactive).

And the GI50 (UO-31)?
The GI50 was 20.1 µM (inactive).

What about the GI50 (XF498) of the same compound?
The GI50 was 31 µM (inactive).
